# Tests used:
# [1] = tested on: Peptocuccus prevotii ATCC 9321; assay: microbe, parasite or virus in culture
# [2] = tested on: S. pyogenes A20201; assay: Bactericidal activity (MIC & MBC); format: cell-based; details: Streptococcus pyogenes, A20201, 18 h
# [3] = tested on: Staphylococcus aereus Smith; assay: MIC, serial two-fold agar dilution, aerobic bacteria; format: cell-based
# [4] = tested on: C. perfringens or S. pyrogenes; format: in vivo, mice; details: oral
# [5] = tested on: Streptococcus viridans A21354; assay: MIC, serial two-fold agar dilution, aerobic bacteria; format: cell-based; details: GC medium (Eiken)
# [6] = tested on: Peptococcus aerogenes ATCC 14963; assay: microbe, parasite or virus in culture; details: Peptoniphilus asaccharolyticus, ATCC14963
# [7] = tested on: Sphaerophorus necrophorus A15202; assay: microbe, parasite or virus in culture; details: Fusobacterium necrophorum
# [8] = tested on: C. perfringens A9635; assay: animal or person; format: in vivo, mice
# [9] = tested on: B. fragilis A20928-1; assay: Inoculum size effect on MIC, GAM agar; format: cell-based; details: Bacteroides fragilis, A209281; inoculum size 1.2 × 10^6 cell/ml
# [10] = tested on: aerobic organisms; assay: Antibacterial activity against aerobic bacteria (in words); format: cell-based; details: Bacillus species, streptococci, Neisseria meningtidis, N. gonorrhoeae, Hemophilus influenzae
smiles,measurement,setting,value
COC(=O)C1C(C)OC2(C)CC(=O)C3OC12OC(C(C)/C=C(C)/C=C/C(=O)C1=C(O)CN(C)C1=O)C3C (centres unmarked) [Bu-2313A],MIC,[1],0.2 µg/mL
same,MBC,[2],12.5 µg/mL
same,MIC,[3],12.5 µg/mL
same,activity by the oral route,[4],inactive by the oral route
same,MIC,[5],0.8 µg/mL
same,MIC,[6],0.2 µg/mL
same,MIC,[7],0.2 µg/mL
same,ED50,"[8]; Clostridium perfringens, A9635, in Mus musculus, sc, 120 h, read-out: PD50",6.25 mg/kg
same,PD50,"[8]; po, just before challenge, determined after 5 days, NA: no activity",NA at 50
same,MIC,[9],0.1 µg/mL
same,susceptibility of aerobic strains,[10],susceptible
